How the values were obtained:
Assay in all cases: relative viability (nuclei count vs DMSO), 5 days (fraction); higher = more cells survive
201T = tested on: 201T
Summary of the method: (§1)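 Five library-drug doses in √10 steps were combined with a fixed anchor-drug dose, or a single drug was given alone, by pin tool to lung cancer cell lines in 1536-well plates the day after seeding. Nuclei were stained and counted after 5 days. Relative viability is the nuclei count in treated wells over that in vehicle wells, taken as the median of duplicate plates.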

BEN = tested on: BEN
Summary of the method: as §1

COR-L 105 = tested on: COR-L 105
Summary of the method: as §1

EKVX = tested on: EKVX
Summary of the method: as §1

EPLC-272H = tested on: EPLC-272H
Summary of the method: as §1

H3255 = tested on: H3255
Summary of the method: as §1

HCC-44 = tested on: HCC-44
Summary of the method: as §1

HCC-827 = tested on: HCC-827
Summary of the method: as §1

LCLC-97TM1 = tested on: LCLC-97TM1
Summary of the method: as §1

LOU-NH91 = tested on: LOU-NH91
Summary of the method: as §1

LU99A = tested on: LU99A
Summary of the method: as §1

NCI-H1437 = tested on: NCI-H1437
Summary of the method: as §1

NCI-H1666 = tested on: NCI-H1666
Summary of the method: as §1

NCI-H1975 = tested on: NCI-H1975
Summary of the method: as §1

NCI-H2085 = tested on: NCI-H2085
Summary of the method: as §1

NCI-H2087 = tested on: NCI-H2087
Summary of the method: as §1

NCI-H2170 = tested on: NCI-H2170
Summary of the method: as §1

NCI-H2342 = tested on: NCI-H2342
Summary of the method: as §1

NCI-H647 = tested on: NCI-H647
Summary of the method: as §1

NCI-H650 = tested on: NCI-H650
Summary of the method: as §1

PC-3 [JPC-3] = tested on: PC-3 [JPC-3]
Summary of the method: as §1

SW 1573 = tested on: SW 1573
Summary of the method: as §1

COc1cc2nccc(Oc3ccc(NC(=O)Nc4cc(C)on4)c(Cl)c3)c2cc1OC [Tivozanib] + N=C(N)NC(=N)NCCc1ccccc1 [Phenformin] (partner 250 µM)
relative viability (201T; first compound 0.005 µM): 0.447 | relative viability (201T; first compound 0.01581 µM): 0.405 | relative viability (201T; first compound 0.05 µM): 0.423 | relative viability (201T; first compound 0.1581 µM): 0.445 | relative viability (201T; first compound 0.5 µM): 0.469 | relative viability (BEN; first compound 0.005 µM): 0.25 | relative viability (BEN; first compound 0.01581 µM): 0.279 | relative viability (BEN; first compound 0.05 µM): 0.224 | relative viability (BEN; first compound 0.1581 µM): 0.314 | relative viability (BEN; first compound 0.5 µM): 0.234 | relative viability (COR-L 105; first compound 0.005 µM): 0.49 | relative viability (COR-L 105; first compound 0.01581 µM): 0.482 | relative viability (COR-L 105; first compound 0.05 µM): 0.558 | relative viability (COR-L 105; first compound 0.1581 µM): 0.501 | relative viability (COR-L 105; first compound 0.5 µM): 0.43 | relative viability (EKVX; first compound 0.005 µM): 0.214 | relative viability (EKVX; first compound 0.01581 µM): 0.228 | relative viability (EKVX; first compound 0.05 µM): 0.232 | relative viability (EKVX; first compound 0.1581 µM): 0.243 | relative viability (EKVX; first compound 0.5 µM): 0.236 | relative viability (EPLC-272H; first compound 0.005 µM): 0.271 | relative viability (EPLC-272H; first compound 0.01581 µM): 0.355 | relative viability (EPLC-272H; first compound 0.05 µM): 0.359 | relative viability (EPLC-272H; first compound 0.1581 µM): 0.314 | relative viability (EPLC-272H; first compound 0.5 µM): 0.239 | relative viability (H3255; first compound 0.005 µM): 0.332 | relative viability (H3255; first compound 0.01581 µM): 0.333 | relative viability (H3255; first compound 0.05 µM): 0.354 | relative viability (H3255; first compound 0.1581 µM): 0.339 | relative viability (H3255; first compound 0.5 µM): 0.351 | relative viability (HCC-44; first compound 0.005 µM): 0.152 | relative viability (HCC-44; first compound 0.01581 µM): 0.234 | relative viability (HCC-44; first compound 0.05 µM): 0.19 | relative viability (HCC-44; first compound 0.1581 µM): 0.18 | relative viability (HCC-44; first compound 0.5 µM): 0.131 | relative viability (HCC-827; first compound 0.005 µM): 0.402 | relative viability (HCC-827; first compound 0.01581 µM): 0.434 | relative viability (HCC-827; first compound 0.05 µM): 0.391 | relative viability (HCC-827; first compound 0.1581 µM): 0.43 | relative viability (HCC-827; first compound 0.5 µM): 0.452 | relative viability (LCLC-97TM1; first compound 0.005 µM): 0.423 | relative viability (LCLC-97TM1; first compound 0.01581 µM): 0.49 | relative viability (LCLC-97TM1; first compound 0.05 µM): 0.417 | relative viability (LCLC-97TM1; first compound 0.1581 µM): 0.473 | relative viability (LCLC-97TM1; first compound 0.5 µM): 0.395 | relative viability (LOU-NH91; first compound 0.005 µM): 0.65 | relative viability (LOU-NH91; first compound 0.01581 µM): 0.667 | relative viability (LOU-NH91; first compound 0.05 µM): 0.748 | relative viability (LOU-NH91; first compound 0.1581 µM): 0.654 | relative viability (LOU-NH91; first compound 0.5 µM): 0.676 | relative viability (LU99A; first compound 0.005 µM): 0.79 | relative viability (LU99A; first compound 0.01581 µM): 0.768 | relative viability (LU99A; first compound 0.05 µM): 0.879 | relative viability (LU99A; first compound 0.1581 µM): 0.769 | relative viability (LU99A; first compound 0.5 µM): 0.755 | relative viability (NCI-H1437; first compound 0.005 µM): 0.296 | relative viability (NCI-H1437; first compound 0.01581 µM): 0.289 | relative viability (NCI-H1437; first compound 0.05 µM): 0.316 | relative viability (NCI-H1437; first compound 0.1581 µM): 0.339 | relative viability (NCI-H1437; first compound 0.5 µM): 0.317 | relative viability (NCI-H1666; first compound 0.005 µM): 0.507 | relative viability (NCI-H1666; first compound 0.01581 µM): 0.553 | relative viability (NCI-H1666; first compound 0.05 µM): 0.579 | relative viability (NCI-H1666; first compound 0.1581 µM): 0.569 | relative viability (NCI-H1666; first compound 0.5 µM): 0.582 | relative viability (NCI-H1975; first compound 0.005 µM): 0.398 | relative viability (NCI-H1975; first compound 0.01581 µM): 0.429 | relative viability (NCI-H1975; first compound 0.05 µM): 0.397 | relative viability (NCI-H1975; first compound 0.1581 µM): 0.423 | relative viability (NCI-H1975; first compound 0.5 µM): 0.395 | relative viability (NCI-H2085; first compound 0.005 µM): 0.652 | relative viability (NCI-H2085; first compound 0.01581 µM): 0.723 | relative viability (NCI-H2085; first compound 0.05 µM): 0.711 | relative viability (NCI-H2085; first compound 0.1581 µM): 0.62 | relative viability (NCI-H2085; first compound 0.5 µM): 0.673 | relative viability (NCI-H2087; first compound 0.005 µM): 0.416 | relative viability (NCI-H2087; first compound 0.01581 µM): 0.444 | relative viability (NCI-H2087; first compound 0.05 µM): 0.496 | relative viability (NCI-H2087; first compound 0.1581 µM): 0.407 | relative viability (NCI-H2087; first compound 0.5 µM): 0.415 | relative viability (NCI-H2170; first compound 0.005 µM): 0.413 | relative viability (NCI-H2170; first compound 0.01581 µM): 0.42 | relative viability (NCI-H2170; first compound 0.05 µM): 0.395 | relative viability (NCI-H2170; first compound 0.1581 µM): 0.424 | relative viability (NCI-H2170; first compound 0.5 µM): 0.421 | relative viability (NCI-H2342; first compound 0.005 µM): 0.554 | relative viability (NCI-H2342; first compound 0.01581 µM): 0.585 | relative viability (NCI-H2342; first compound 0.05 µM): 0.59 | relative viability (NCI-H2342; first compound 0.5 µM): 0.632 | relative viability (NCI-H647; first compound 0.005 µM): 0.538 | relative viability (NCI-H647; first compound 0.01581 µM): 0.457 | relative viability (NCI-H647; first compound 0.05 µM): 0.473 | relative viability (NCI-H647; first compound 0.1581 µM): 0.469 | relative viability (NCI-H647; first compound 0.5 µM): 0.497 | relative viability (NCI-H650; first compound 0.005 µM): 0.395 | relative viability (NCI-H650; first compound 0.01581 µM): 0.457 | relative viability (NCI-H650; first compound 0.05 µM): 0.472 | relative viability (NCI-H650; first compound 0.1581 µM): 0.39 | relative viability (NCI-H650; first compound 0.5 µM): 0.333 | relative viability (PC-3 [JPC-3]; first compound 0.005 µM): 0.477 | relative viability (PC-3 [JPC-3]; first compound 0.01581 µM): 0.468 | relative viability (PC-3 [JPC-3]; first compound 0.05 µM): 0.516 | relative viability (PC-3 [JPC-3]; first compound 0.1581 µM): 0.427 | relative viability (PC-3 [JPC-3]; first compound 0.5 µM): 0.481 | relative viability (SW 1573; first compound 0.005 µM): 0.361 | relative viability (SW 1573; first compound 0.01581 µM): 0.362 | relative viability (SW 1573; first compound 0.05 µM): 0.369 | relative viability (SW 1573; first compound 0.1581 µM): 0.306 | relative viability (SW 1573; first compound 0.5 µM): 0.386
